Entries after “also recorded” stand apart in the source; their conditions may differ. Marks after values point to notes of the source that are not given here.
Columns and labels:
[1] = system: rat morphine withdrawal model; assay: Rat morphine withdrawal model (naloxone-precipitated); assay type: in vivo; settings: rats, 25 mg/kg PO QD for 7 days
Experimental: The ability of (S)-AV1013 to reduce/ameliorate withdrawal behavior relative to a control was evaluated in rats. The study was conducted in accordance with the method disclosed by Hutchinson et. al., Brain Behavior and Immunity, V. 23, (2009), p 240-250.
Rats were administered morphine in escalating doses over a five day period to induce dependence (15-22.5 mg/kg/day). (S)-AV1013 (25 mg/kg PO QD) or vehicle (saline) administration was initiated two days prior and continued concomitant with the morphine dosing regimen for a total of 7-days. On day seven all animals were administered naloxone SC to precipitate withdrawal symptoms. Specific withdrawal behaviors were scored over 6×, 10 minute intervals. A total of 15 rats per group were evaluated.

Water solubility = assay type: physicochemical
[2] = Bioavailability and duration of action of (S)-AV1013
Rolipram binding site = assay: Inhibition of binding at the Rolipram binding site; settings: 10 uM
[3] = biological target: T1, rhMIF (recombinant human Macrophage migration Inhibitory Factor) (Homo sapiens, UniProt P14174); assay: MIF-induced migration of human peripheral blood monocytes (PBMCs); assay type: cell-based; settings: rhMIF 90 nM, dilution series of inhibitor
T1 sequence (P14174 2-115 limits assumed): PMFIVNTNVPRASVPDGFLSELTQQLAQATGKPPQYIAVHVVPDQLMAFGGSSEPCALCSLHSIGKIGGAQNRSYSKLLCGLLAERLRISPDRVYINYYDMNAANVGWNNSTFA
Experimental: The chemo attractant activities of rhMIF (recombinant human Macrophage migration Inhibitory Factor) and the effect of inhibitors were measured using human peripheral blood monocytes (PBMCs) isolated from whole blood by centrifugation on Histopaque-1077 (Sigma). The cells were washed in RPMI-1640, diluted to 1×10^6 cells/ml and analyzed immediately. These assays were carried out in 24 well tissue culture plates utilizing 8.0 μm cell culture inserts (Falcon). Recombinant hMIF (90 nM), diluted in RPMI was placed in the cells of a 24 well plate with or without inhibitor (10-fold molar excess or dilution series) and allowed to incubate for 30 min at 37° C., 5% CO2. Washed human monocytes were added to the upper chamber of 8.0 μm cell culture inserts and allowed to incubate for 3 hrs at 37° C., 5% CO2. Cells that migrate through the membrane were fixed in methanol and stained with Geimsa, prior to cell counting using light microscopy.
Results are expressed as the mean number of cells counted per high power field for each of two replicates to obtain statistically significant data. (Legend: −Star=no human MIF, Skull=no human MIF+10 uM (S)-AV1013. See FIGS. 5A and 5B.

formalin paw model = assay: Inflammatory pain model (formalin paw model) in mice; assay type: in vivo; settings: for % Change from Control / Licking Score (Mean +/− SEM): mice
Experimental: The model employed is described in detail by Wheeler-Aceto et al (Psychopharmacology, 104, p 35-44, (1991)). Briefly, mice were given an intraplantar injection of 5% formalin (25 μl) into the posterior left paw. […] Mice were briefly observed at 1 minute intervals between 15 and 50 minutes after the injection of formalin and the number of times mice were observed licking the injected paw was recorded. 10 mice were studied in each group. The test was performed blind.
AV1013-S was evaluated at 3 doses (10, 25 and 50 mg/kg), administered p.o. 60 minutes before the test (i.e. 45 minutes before formalin), and compared with a vehicle control group. Gabapentin (300 mg/kg p.o.), administered under the same experimental conditions, was used as reference substance. The experiment therefore included 5 groups.
Data were analyzed by comparing treated groups with vehicle control using unpaired Mann-Whitney U tests.

[4] = Chiral and chemical stability in solution and on storage; assay type: physicochemical; settings: for racemization in dosing solutions and bioanalytical solutions: saline vehicle, DMSO:methanol, 1:1
From the text: Without ascribing to any particular theory, the present inventors believe that the facile separation of enantiomers using the N-protected racemate of AV1013 is probably due to the greater stability of the racemate as well as the separate enantiomers in protected form. […] Unstability also stems from the ability of the free base to self condense. Because self-condensation is promoted in concentrated solutions, it is desirable to avoid highly concentrated solutions of the free base form of optically active AV1013. Likewise, the free base form of racemic AV1013 or its hydrochloride salt are also unstable, precluding their use as precursors to obtaining (S)-AV1013 as a free base or its hydrochloride salt in high yield and/or high purity.
Thus, it is often desirable to re-purify the de-protected product using purification techniques known in the art. For example, any one or more of the methods described above for separating chiral molecules, such as, chromatography (e.g., HPLC, GC, and SFC), crystallization, fractional crystallization, and the like may be used for re-purification. An exemplary method is recrystallization. Purification by recrystallization allows separation of the desired (S)-enantiomer in high purity, such that the overall reaction sequence including isolation of the desired (S)-enantiomer requires only a single chromatographic step (i.e., the chiral separation). Recrystallization can be carried out in any of a number of single or mixed solvent systems including alcohols, ethers, esters, nitriles, halogenated hydrocarbons, amides and aqueous mixtures thereof. Suitable solvents include methanol, ethanol, propanol, iso-propanol, acetone, tetrahyrofuran, methyl ethyl ketone, methyl isobutyl ketone, ethyl acetate, amyl acetate, acetonitrile, diethyl ether, methyl tert-butyl ether, dichloromethane, dichloroethane, chloroform, dimethylformamide, and combinations thereof. Illustrative mixed solvent systems used to recrystallize (S)-AV1013 are iso-propanol/methyl tert-butyl ether and ethanol/methyl tert-butyl ether.
The five-step route provided a 15% overall yield of (S)-AV1013.HCl. The chiral separation, by SFC chromatography, is the only chromatographic step required. Hydrolysis of the N-protected (S)-AV1013, followed by recrystallization from iso-propanol/methyl tert-butyl ether provided (S)-AV1013.HCl in greater than 99% chemical purity and greater than 97% S-enantiomer (greater than 94% enantiomeric excess (ee)) by chiral HPLC, as determined from the equation ee=[|R−S^51÷(R+S)]×100 ee=[|R−S|÷(R+S)]×100. […] Even under optimal storage and handling conditions to minimize exposure to moisture, a small degree of racemization (i.e., approximately 2%) was observed. Recrystallization was effective to improve enantiomeric purity to arrive at a product having an illustrative chiral purity as described above. […] The recrystallized (S)-AV 1013.HCl contained approximately 25 mole percent alcohol (less than about 10% by weight) even when dried at 50° C. Thus, it appears that the resultant product is formed as a solvate under the recrystallization and drying conditions employed.

[5] = In vivo interconversion of enantiomers in rats dosed with enantiomerically pure (S)-AV1013; set-up: species or system rat; settings: rats dosed with (S)-AV1013 of 99% enantiomeric excess, LLOQ=5 ng/mL
[6] = 10 mg/kg p.o. 60 min before the test
[7] = 25 mg/kg p.o. 60 min before the test

## CC(C)c1nn2ccccc2c1C(=O)[C@H](C)N [(S)-AV1013, (S)-2-amino-1-(2-isopropylpyrazolo[1,5-a]pyridin-3-yl)propan-1-one]
[1]
  withdrawal behaviors relative to vehicle: reduced withdrawal behaviors; also recorded: reduced withdrawal symptoms relative to those receiving vehicle
Water solubility
  water solubility: good water solubility
[2]
  in vivo duration of action: 2 to 24 h
[2]; in vivo, share of the (S)-enantiomer dosed that is bioavailable
  bioavailability: > 70%
Rolipram binding site
  inhibition of the Rolipram binding site: 12%
[3]
  antagonism of MIF-induced cell migration: antagonize MIF-induced macrophage migration in a dose-dependent fashion; also recorded: antagonize MIF-induced mononuclear cell migration in a similar dose dependent fashion
Formalin paw model; [6]
  % Change from Control: −16%
  Licking Score (Mean +/− SEM): 13.1 +/− 1.5
Formalin paw model; [7]
  % Change from Control: −16%
  Licking Score (Mean +/− SEM): 13.1 +/− 1.8
Formalin paw model; 50 mg/kg p.o. 60 min before the test, 50 mg/kg
  % Change from Control: −45%
Formalin paw model; 50 mg/kg p.o. 60 min before the test, p < 0.01
  Licking Score (Mean +/− SEM): 8.6 +/− 1.4 *
Formalin paw model; single oral dose of 50 mg/kg
  analgesic/anti-inflammatory activity in mouse formalin paw model (late-phase): demonstrated analgesic/anti-inflammatory activity
[4]; free base (or hydrochloride salt where stated), in solution
  stability / racemization in solution: unstable and racemizes in solution; also recorded: racemizes slowly in solution
[4]
  racemization in dosing solutions and bioanalytical solutions: no detectable interconversion between the enantiomers
[4]; listed as (S)-enantiomer
  racemization in dosing solutions and bioanalytical solutions: no racemization has been documented
[5]
  plasma levels of the (R) enantiomer after dosing (S) (in vivo racemization): no detectable plasma levels of the corresponding (R) enantiomer
[5]; listed as (S)-enantiomer
  plasma levels of the (R) enantiomer after dosing (S) (in vivo racemization): does not result in detectable levels of the (R)-enantiomer
